Test results from BigSolDB 2.1.

O=C(O)CCC(=O)C(=O)O
solubility (mole fraction)
Settings	278.15 K	280.15 K	282.15 K	284.15 K	286.15 K	288.15 K	293.15 K
in ethyl acetate	0.0358	0.0374	0.0392	0.0418	0.0455	0.0494	0.0603
in n-butyl acetate	0.0261	0.0284	0.0303	0.0337	0.0363	0.0391	0.0466
in water	0.11	0.114	0.12	0.128	0.135	0.146	0.168
